Laboratory results published in ChEMBL document CHEMBL3627715, “Caffeoyl glucosides from Nandina domestica inhibit LPS-induced endothelial inflammatory responses” (Bioorg Med Chem Lett, 2015).

Tests used:
HUVEC [1] = assay: Inhibition of LPS-induced neutrophil migration in HUVEC cells assessed as migration index at 20 uM for 6 hrs pretreated with LPS for 4 hrs (reference value: 155); format: functional, Homo sapiens
HUVEC [2] = assay: Inhibition of LPS-induced neutrophil adhesion in HUVEC cells assessed as neutrophil adhesion to cell monolayer at 20 uM for 6 hrs pretreated with LPS for 4 hrs by fluorescence microplate reader assay (reference value: 86%); format: functional, Homo sapiens; set-up: scale not given: the % may be the effect or the level left
HUVEC [3] = assay: Inhibition of LPS-induced hyperpermeability in HUVEC cells assessed as permeability at 20 uM for 6 hrs pretreated with LPS for 4 hrs by evans blue dye flux based immunofluorescence analysis (reference value: 100%); format: functional, Homo sapiens; set-up: scale not given: the % may be the effect or the level left
HUVEC [4] = assay: Inhibition of LPS-induced neutrophil migration in HUVEC cells for 6 hrs pretreated with LPS for 4 hrs; format: functional, cell-based; details: Homo sapiens
HUVEC [5] = assay: Cytotoxicity against HUVEC cells assessed as neutrophil adhesion at 2.5 to 20 uM after 6 hrs by fluorescence microplate reader assay; format: cell-based; details: human
HUVEC [6] = assay: Cytotoxicity against HUVEC cells assessed as neutrophil migration at 2.5 to 20 uM after 6 hrs; format: cell-based; details: human
HUVEC [7] = assay: Cytotoxicity against HUVEC cells assessed as permeability at 2.5 to 20 uM after 6 hrs by evans blue dye flux based immunofluorescence analysis; format: cell-based; details: human
HUVEC [8] = assay: Inhibition of LPS-induced neutrophil adhesion in HUVEC cells for 6 hrs pretreated with LPS for 4 hrs by fluorescence microplate reader assay; format: functional, cell-based; details: Homo sapiens
[9] = Acid hydrolysis of compound assessed as retention time at 2 mg after 6 hrs by RP-HPLC method; format: physicochemical
HUVEC [10] = assay: Inhibition of LPS-induced hyperpermeability in HUVEC cells for 6 hrs pretreated with LPS for 4 hrs by evans blue dye flux based immunofluorescence analysis; format: functional, cell-based; details: Homo sapiens

Row | Compound | Activity_index (HUVEC [1]) | Activity (HUVEC [2]) [%] | Activity (HUVEC [3]) [%] | inhibition (HUVEC [4]) | Activity (HUVEC [5]) | Activity (HUVEC [6]) | Activity (HUVEC [7]) | inhibition (HUVEC [8]) | Retention_time [9] [min] | inhibition (HUVEC [10])
1 | O=C(/C=C/c1ccc(O)c(O)c1)OCc1ccc(O[C@@H]2O[C@H](CO)[C@@H](O)[C@H](O)[C@H]2O)cc1 | 142 | 73 |  |  |  |  |  |  |  | 
2 | O=c1cc(-c2ccc(O)c(O)c2)oc2c([C@@H]3O[C@H](CO)[C@@H](O)[C@H](O)[C@H]3O)c(O)cc(O)c12 [ORIENTIN] | 73 | 41 | 71 | Dose-dependent effect |  |  |  |  |  | 
3 | O=Cc1ccc(O[C@@H]2O[C@H](COC(=O)/C=C/c3ccc(O)c(O)c3)[C@@H](O)[C@H](O)[C@H]2O)cc1 | 75 | 30 | 73 | Dose-dependent effect | Non-toxic | Non-toxic | Non-toxic | Dose-dependent effect | 28.1 | Dose-dependent effect
4 | O=Cc1ccc(O[C@@H]2O[C@H](CO)[C@@H](OC(=O)/C=C/c3ccc(O)c(O)c3)[C@H](O)[C@H]2O)cc1 | 74 | 33 | 58 | Dose-dependent effect | Non-toxic | Non-toxic | Non-toxic | Dose-dependent effect |  | Dose-dependent effect
